These results are taken from US8273723B2, “Compositions and methods for improved glycoprotein sialylation” (Sigma-Aldrich Co. LLC, priority 2007, dated 2012).

One data set has as its system CHO Neu3. Briefly: Sialidase assay in the presence of sialidase inhibitors, CHO Neu3. It is filed as biochemical, CHO (Chinese hamster ovary). The procedure: (§1) Enzymatic sialidase activity studies were performed to confirm that the proteins coded by these two new genes having the expected functions in CHO cells. Briefly, the coding regions for the Neu1 (SEQ ID NO:1) and Neu3 (SEQ ID NO:3) genes, as well as the coding region of the previously reported Neu2 gene (Ferrari et al. (1994) Glycobiology 4(3):367-373) were cloned into pcDNA3.1 mammalian expression vectors. The expression constructs then were transfected into COS7 cells to overexpress the sialidase proteins. The pcDNA3.1 vector alone was also transfected into COS7 cells as the mock transfection. An expression construct containing green fluorescence protein (GFP) was cotransfected into the COS7 cells to normalize the transfection efficiency.
(§2) Twenty-four hours after transfection, the cells were lysed by sonication. The cell debris was removed by centrifugation at 1000×g for 10 min at 4° C. and the supernatant factions were collected for enzymatic activity. The sialidase assay was performed as previously described (Gramer et al. (1993) Biotechnol Prog 9: 366-373) using 1 mM of 4-methylumbelliferone-Neu5Ac as substrate. For each lysate, 100 μg of protein was used in the assay. The assay was performed in triplicate. […] In fact, the Neu3 protein had more than approximately 6-15 times as much activity as Neu2. […]

Data set [1] has as its system proteins encoded by the CHO Neu1, Neu2, and Neu3 genes. Nature of the data set: Sialidase assay in the presence of sialidase inhibitors, all sialidases. Format: biochemical, CHO (Chinese hamster ovary). Conditions: two concentrations, FIG. 2. As for the experimental part: as §1, §2
The subject of the next data set is Neu1 mRNA. Nature of the data set: Q-RT PCR of Neu1 mRNA in stably shRNA-transduced CHO-hIFNγ cells. It is filed as cell-based, CHO (Chinese hamster ovary). The following applies: FIG. 7A. The procedure: (§3) The expression of each of the three CHO sialidase genes was knocked down using small interfering RNA (siRNA) technologies. Based on the cDNA sequences, several siRNAs against the CHO sialidase genes (Neu1, Neu2, and Neu3) were designed and synthesized for each gene. These siRNAs were transfected into a CHO cell line stably expressing human interferon gamma (CHO-hIFNγ). The transfections were performed in duplicate. Forty-eight hours after transfection, the cells were harvested. RNA and protein were isolated from the transfected cells. Reverse transcription polymerase chain reaction, (RT-PCR) and quantitative RT-PCR (Q-RT-PCR) using gene-specific primers were performed using standard procedures.
(§4) DNA fragments encoding the effective siRNAs for each sialidase gene (Neu1-S4, Neu2-S3, Neu3-S2) were cloned into the pLKO.1-puro shRNA expression vector. After DNA sequencing confirmation, plasmid DNAs were transfected into HEK293 cells to produce lentivirus packed with shRNA cassettes. After infection of suspension CHO-hIFNγ cells with lentivirus containing shRNA cassettes and puromycin selection, CHO-hIFNγ cells harboring shRNA cassettes for Neu1, Neu2 and Neu3 genes were obtained. Q-RT PCR was performed to confirm gene-silencing effects at the level of mRNA (FIG. 7). […]

Data set [2] relates to hIFNγ protein produced by CHO-hIFNγ cells. Nature of the data set: Sialic acid content of purified hIFNγ from shRNA CHO cells by HPLC. It is filed as cell-based, CHO (Chinese hamster ovary). The following applies: for levels of sialic acid in hIFNγ protein versus non-target shRNA control: day 6; for sialic acid content of hIFNγ protein: n=4. The procedure: The levels of sialic acid were analyzed by HPLC in human IFNγ protein produced by the sialidase shRNA targeted cells and non-target shRNA control cells. Spent media samples were collected from 5 L bioreactor cultures at stationary phase (day 6, cell viability around 95%) and death phase (day 13, cell viability around 20%). Human interferon gamma proteins were purified from cell culture supernatants by immunoaffinity purification. Briefly, after centrifugation and filtration to remove cell debris, 30 ml of a protein sample was loaded on an affinity column conjugated with hIFNγ antibody. After washing the column, hIFNγ protein was eluted with elution buffer. Purification was carried out on an AKTA Explorer 100 chromatographic system (Amersham Biosciences). The purified protein was quantified by ELISA as previously described.
The sialylation of purified hIFNγ proteins were analyzed by HPLC. Briefly, 50 μg of purified hIFNγ protein sample was lyophilized and resuspended in 100 μl of ultrapure water with 2N acetic acid. The sample was hydrolyzed at 80° C. for 3 hours. Then the sample was filtered and speed-vac dried. Released sialic acid residues were derivatized with a fluorogenic compound, 1,2-diamino-4,5-(methylenedioxy)benzene (DMB), followed by HPLC using C18 reverse phase column.

In the next data set the test system is Neu2 mRNA. Briefly: Q-RT PCR of Neu2 mRNA in stably shRNA-transduced CHO-hIFNγ cells. It is filed as cell-based, CHO (Chinese hamster ovary). Conditions: FIG. 7B. The procedure:
as §3, §4

For data set [3], the system named is sialidase activity in CHO-hIFNγ cells. Briefly: Sialidase activity assay in CHO-hIFNγ cells harboring shRNA. The following applies: stable shRNA, FIG. 8. It is filed as cell-based, CHO (Chinese hamster ovary). As for the experimental part:
(§5) Twenty-four hours after transfection, the cells were lysed by sonication. The cell debris was removed by centrifugation at 1000×g for 10 min at 4° C. and the supernatant factions were collected for enzymatic activity. The sialidase assay was performed as previously described (Gramer et al. (1993) Biotechnol Prog 9: 366-373) using 1 mM of 4-methylumbelliferone-Neu5Ac as substrate. For each lysate, 100 μg of protein was used in the assay. The assay was performed in triplicate. […] In fact, the Neu3 protein had more than approximately 6-15 times as much activity as Neu2.
as §4, with “7). The mRNA expression knockdown of Neu1 (Neu1-S4) was over 95% in Neu1-shRNA cells (FIG. 7A), about 50% knockdown with Neu2 (Neu2-S3) in Neu2-shRNA cells (FIG. 7B), and over 70% knockdown with Neu3 (Neu3-S2) in Neu3-shRNA cells (FIG. 7C).” for “7).”

The test system of the next data set is Neu3 mRNA. Briefly: Q-RT PCR of Neu3 mRNA in stably shRNA-transduced CHO-hIFNγ cells. It is filed as cell-based, CHO (Chinese hamster ovary). Conditions: FIG. 7C. As for the experimental part: as §3, §4
Data set [4] is described as follows: Sialidase assay on lysates of COS7 cells overexpressing CHO sialidase proteins. Format: biochemical, CHO (Chinese hamster ovary). The procedure:
as §1, §5

Take `CC(=O)N[C@H]1[C@H]([C@H](O)[C@H](O)CO)OC(C(=O)O)=C[C@@H]1O` [Neu5Ac2en]: the “decrease of sialidase activity” value in the data set with CHO Neu3 (0.1 mM inhibitor) is listed as “about 30%”. The “reduction of sialidase activity” value in the data set on CHO Neu3 (0.5 mM inhibitor) is reported as “about 60%”. In addition, the “inhibitory effect on sialidase activity (comparison of the two inhibitors)” value in data set [1] is reported as “greater inhibitory effects than Neu5Ac”.

As for “Neu1-S4: siRNA/shRNA against CHO Neu1; sense GGACACUACGCGUCAUCUGtt (SEQ ID NO 10), antisense CAGAUGACGCGUAGUGUCCtt (SEQ ID NO 11) (sense GGACACUACGCGUCAUCUGTT; antisense CAGAUGACGCGUAGUGUCCTT; chemistry not given here; listed as Cricetulus griseus)”, in the data set with Neu1 mRNA, the “mRNA expression knockdown of Neu1” value is listed as “over 95%”. The “levels of sialic acid in hIFNγ protein versus non-target shRNA control” value in data set [2] was “not significantly different”. In addition, in data set [2] (day 13), the “sialylation of hIFNγ versus non-target shRNA control” value is recorded as “no obvious improvement”.

As for “Neu2-S3: siRNA/shRNA against CHO Neu2; sense GACGGAUGAGCAUGCAGAUtt (SEQ ID NO 14), antisense AUCUGCAUGCUCAUCCGUCtt (SEQ ID NO 15) (sense GACGGAUGAGCAUGCAGAUTT; antisense AUCUGCAUGCUCAUCCGUCTT; chemistry not given here; listed as Cricetulus griseus)”, the “levels of sialic acid in hIFNγ protein versus non-target shRNA control” value in data set [2] was “not significantly different”. Besides, the “sialic acid content of hIFNγ protein” value in data set [2] (day 6 (stationary phase)) is 1.945±0.111 pmol sialic acid/pmol hIFNγ; in data set [2] (day 13 (death phase)) it was 4.948±0.150 pmol sialic acid/pmol hIFNγ. In the data set on Neu2 mRNA, the “mRNA expression knockdown of Neu2” value is “about 50%”.

In the case of “Neu3-S2: siRNA/shRNA against CHO Neu3; sense GUACCAGCCGUGUGUUACUtt (SEQ ID NO 18), antisense AGUAACACACGGCUGGUACtt (SEQ ID NO 19) (sense GUACCAGCCGUGUGUUACUTT; antisense AGUAACACACGGCUGGUACTT; chemistry not given here; listed as Cricetulus griseus)”, the “sialic acid content of hIFNγ protein” value in data set [2] (day 6 (stationary phase)) is given as 2.133±0.101 pmol sialic acid/pmol hIFNγ. The “sialidase activity compared to non-target shRNA control” value in data set [3] was “most dramatic reduction”. In the data set with Neu3 mRNA, the “mRNA expression knockdown of Neu3” value was “over 70%”.

B1: CHO Neu3: CHO plasma membrane-associated sialidase, 417 aa, SEQ ID NO:4 (protein, listed as Cricetulus griseus)
chain: MEEVSACSLNSTLFQQEHQKGTTYRIPALLYIPPSHTFLAFAEKRSSSKDVDALHLVLRRGVMKGHSVEWGPLQPLMEATLPGHRTMNPCPVWEQSTSRVLLFFICVPDRVTEHWQIRSGKNAARLCFLCSQDAGCSWGEVKDLTEEVIGSELKHWATFAVGPGHGIRLQSGRLIIPTYAYYFSCRFLCFPCSVKPHSLMIYSDDLGVTWHHGKLIGPQVTGECQVAEVTGTSGNLVLYCNARTPNRFRAESFSTDYGDCFQKPTLNTQLCEPRYGCQGSIVSFQPLKMPFSQDPIGKAAPTTQKSPLLDSFLEREEGVGRPSGTWLLYSHPTSKKRRINLGIYYNRNPLEVTCWSRPWILHCGPCGYSDLAVVEEQGLFACLFECGQEHECEQIAFRLFSVQEVLSCEDCTGPSRD
On to B1, for which the “sialic acid content of hIFNγ protein” value in data set [2] (day 13 (death phase)) is 5.175±0.414 pmol sialic acid/pmol hIFNγ. For the same molecule, in data set [4] (100 μg lysate protein, 1 mM 4-methylumbelliferone-Neu5Ac, normalized with GFP readings), the “sialidase activity compared to negative control (mock transfection) and positive control (Neu2)” value is “significant sialidase activities”. In data set [4] (more than approximately, lysates of transfected COS7 cells), the “sialidase activity relative to Neu2” value is listed as 6-15 times.
